In article PMC7957705 (Molecules, 2021):
“Also recorded” adds a separate entry of the source. Where a SMILES comes first, the peptide text is derived from it. Bridges are numbered along the chain shown (N, C = ends). Triazole bridges read from a SMILES are 1,4-linked. [ ]: non-standard residue; d: D form. The star is where a group is joined. Benzoyl(4-guanidino) = N=C(N)Nc1ccc(C(=O)*)cc1; Aha = [N-]=[N+]=NCC[C@H](N)C(=O)O; β3hV = CC(C)[C@H](N)CC(=O)O; Nle = CCCC[C@H](N)C(=O)O; Pra = C#CC[C@H](N)C(=O)O

Columns and labels:
human MCH-R1 = target: T1, human MCH-R1 (Homo sapiens, UniProt Q99705); test: Binding displacement of [125I]-[Phe13,Tyr19]-MCH at membranes expressing human MCH-R1
T1 construct: expressed in transfected cells
T1 sequence (Q99705 whole entry): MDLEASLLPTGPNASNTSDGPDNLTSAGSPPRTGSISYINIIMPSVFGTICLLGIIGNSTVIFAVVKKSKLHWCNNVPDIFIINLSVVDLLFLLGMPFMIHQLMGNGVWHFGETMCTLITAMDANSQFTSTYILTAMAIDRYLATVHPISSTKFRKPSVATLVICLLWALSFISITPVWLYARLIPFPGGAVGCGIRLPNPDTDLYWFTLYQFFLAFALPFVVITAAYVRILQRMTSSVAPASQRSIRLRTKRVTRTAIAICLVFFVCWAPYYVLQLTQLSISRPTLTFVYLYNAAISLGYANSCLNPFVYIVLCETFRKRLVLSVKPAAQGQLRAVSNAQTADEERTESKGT

[1] = test system: high-fat diet-induced obese C57BL/6 mice; test: Diet-induced obesity model: adipose tissue weights; type: in vivo, mouse
Method: Male C57BL/6 mice at 4 weeks of age were provided by BioLasco Taiwan (under Charles River Laboratories Licensee). All animals were maintained in an environment with well-controlled temperature (20–24 °C) and humidity (30–70%) with 12 h light/dark cycles. Free access to standard lab diet (MFG (Oriental Yeast Co., Ltd., Japan)) and autoclaved tap water was granted. All aspects of this work including housing, experimentation, and animal disposal were performed in general accordance with the “Guide for the Care and Use of Laboratory Animals: Eighth Edition” (National Academies Press, Washington, D.C., 2011) in our laboratory animal facility accredited by the […]. In addition, the protocol for animal care and use was reviewed and approved by the Institutional Animal Care and Use Committee (IACUC) at Pharmacology Discovery Services Taiwan, Ltd.
The protocol was performed for all groups and all animals. Male C57BL/6 mice were fed a high-fat diet (HFD) (60% of calories) or a standard chow diet (STD) from 4 weeks of age. Thirty (30) mice were fed the HFD and 10 mice were fed the STD (for 8 weeks before treatment) for a total of 20 weeks. The mice assigned to the STD diet were maintained on this diet throughout the study as a reference group of lean control mice. From Week 9, HFD-fed mice were grouped by body weight before dosing. Body weight was recorded three times weekly from Week 9. Food/water intake was recorded twice weekly from Week 9. Blood chemistry analyzes were performed in Weeks 8 (before dosing, Day 56), 16 (Day 113) and 20 (Day 141), including serum insulin, total cholesterol (T-CHO), triglyceride (TG), alanine aminotransferase (ALT), aspartate aminotransferase (AST), uric acid (UA), creatinine, potassium (K^+) and sodium (Na^+). At the termination in Week 20 (Day 141), the adipose tissue weight, including epididymal, mesenteric, inguinal, retroperitoneal, and brown fat, was measured after the animals were sacrificed. Two-way ANOVA followed by Bonferroni’s tests were applied to ascertain the difference between vehicle control and treated animals. Significance was set at p < 0.05 level. The following parameters were measured: (1) body weight three times weekly; (2) food/water intake twice weekly; (3) blood chemistry in Weeks 8 (before dosing), 16 and 20 including glucose, insulin, serum lipids (triglycerides (TG), total cholesterol (TC), AST, alanine aminotransferase (ALT), uric acid, creatinine, potassium and sodium through 16-h fasting animals; and finally, (4) total body fat (including visceral and subcutaneous fat) in Week 20.

[2] = test system: high-fat diet-induced obese C57BL/6 mice; test: Diet-induced obesity model: food and water intake; type: in vivo, mouse; settings: 5 and 10 mg/kg i.p. once daily, HFD mice
Method: Male C57BL/6 mice at 4 weeks of age were provided by BioLasco Taiwan (under Charles River Laboratories Licensee). All animals were maintained in an environment with well-controlled temperature (20–24 °C) and humidity (30–70%) with 12 h light/dark cycles. Free access to standard lab diet (MFG (Oriental Yeast Co., Ltd., Japan)) and autoclaved tap water was granted. […]
The protocol was performed for all groups and all animals. […] Body weight was recorded three times weekly from Week 9. Food/water intake was recorded twice weekly from Week 9. […] At the termination in Week 20 (Day 141), the adipose tissue weight, including epididymal, mesenteric, inguinal, retroperitoneal, and brown fat, was measured after the animals were sacrificed. […] The following parameters were measured: (1) body weight three times weekly; (2) food/water intake twice weekly; (3) blood chemistry in Weeks 8 (before dosing), 16 and 20 including glucose, insulin, serum lipids (triglycerides (TG), total cholesterol (TC), AST, alanine aminotransferase (ALT), uric acid, creatinine, potassium and sodium through 16-h fasting animals; and finally, (4) total body fat (including visceral and subcutaneous fat) in Week 20.

fa/fa rats = test: Genetic model of obesity (fa/fa rats); type: in vivo, rat; settings: data not shown
[3] = 5 and 10 mg/kg i.p. once daily for 12 weeks, Week 20 (Day 141)

CCCC[C@@H]1NC(=O)[C@@H](NC(=O)c2ccc(NC(=N)N)cc2)CCn2cc(nn2)C[C@@H](C(=O)N[C@@H](Cc2c[nH]c3ccccc23)C(=O)O)NC(=O)[C@@H]2CCCN2C(=O)[C@H](CCCNC(=N)N)NC(=O)C[C@H](C(C)C)NC(=O)[C@H](CCCNC(=N)N)NC(=O)[C@H](CC(C)C)NC1=O [GPS18169] ({Benzoyl(4-guanidino)}-[Aha][Nle]LR[β3hV]RP[Pra]W-OH; triazole 1-8)
affinity at the MCH-R1 receptor (in words) (human MCH-R1): low nanomolar range
adipose tissue weight / accumulation ([1]; 5 and 10 mg/kg i.p. once daily for 12 weeks): active in limiting the accumulation of adipose tissues; also recorded: significant decrease
weight of brown fat [1, 3]: significant (p < 0.05) decrease
weight of inguinal fat [1, 3]: significant (p < 0.05) decrease
weight of mesenteric fat [1, 3]: significant (p < 0.05) decrease
weight of retroperitoneal fat [1, 3]: significant (p < 0.05) decrease
weight ratio of adipose tissue to the whole body ([1]; g/100 g of body weight): constant
food intake, treated vs vehicle [2]: no change
water intake, treated vs vehicle [2]: no change
changes between treated and untreated animals (fa/fa rats): no changes were recorded
